# Laboratory results taken from patent US20180256673A1, “METHODS FOR TREATING FUNGAL INFECTIONS” (priority 2015, published 2018).
# Values joined by “and” are separate entries in the source; they are usually repeats but may differ in a detail not shown here. Equal entries are not always repeated. Where two headings read alike, the source gives them in different places.
# Assays:
# C. parapsilosis CP02 [1] = assay type: cell-based, Candida parapsilosis
# Experimental: Spontaneous mutant selection. […] Three individual colonies from each strain were used to start cultures in RPMI. […] One milliliter aliquots were spread onto SDA plates containing drug with sterile glass beads. Starting viable count was enumerated by triplicate plating of serial dilutions of the starting inoculum. […] Glycerol stocks of putative mutant colonies were stored at −80° C. […] Spontaneous mutation frequencies were calculated by dividing the number of resistant colonies on a given plate by the starting inoculum plated. A subset of mutants (weighted heavily towards those selected with CMP1) were then evaluated by MIC and sequencing of FKS gene hot spot regions.
# [2] = tested on: C. glabrata ATCC 90030, ATCC 2001; test: microbe, parasite or virus in culture; assay type: cell-based, Candida glabrata; conditions: for MIC fold-shift: WT to P20; for MIC: Nakaseomyces glabratus
# [3] = tested on: C. glabrata vaginal isolates; test: Susceptibility testing of VVC clinical isolates at pH 7 and 4 (CLSI M27-A3); assay type: cell-based, Candida glabrata; conditions: Nakaseomyces glabratus, 21 isolates, read-out: MIC90
# [4] = tested on: C. parapsilosis vaginal isolates; test: as above; assay type: cell-based, Candida parapsilosis; conditions: 14 isolates, read-out: MIC90
# Candida glabrata = test: microbe, parasite or virus in culture; assay type: cell-based
# Candida parapsilosis = test: Broth microdilution of invasive fungal isolates (CLSI M27-A3/M38-A2); assay type: cell-based; conditions: 92 isolates
# Candida tropicalis = test: as above; assay type: cell-based; conditions: 51 isolates
# C. albicans NRRL Y-477 = test: Broth microdilution MIC (CLSI), Examples 3 and 4; conditions: Candida albicans
# Experimental: Antifungal susceptibility testing. […] MIC assays were performed in triplicate.
# [5] = tested on: C. glabrata ATCC 90030, ATCC 2001; test: Broth microdilution MIC (CLSI), Examples 3 and 4; conditions: for MIC: Nakaseomyces glabratus
# Experimental: (§1) Antifungal susceptibility testing. Candida strains were cultured aerobically at 35° C. on SDA plates or in RPMI 1640 broth (pH 7.0). […] MIC assays were performed in triplicate.
# C. parapsilosis CP02 [6] = test: Broth microdilution MIC (CLSI), Examples 3 and 4; conditions: Lodderomyces parapsilosis, CP02, 24 h, read-out: Broth MIC
# Experimental: as §1
structure (smiles),measurement,setting,value
"CC[C@H](C)C[C@H](C)CCCCCCCCC(=O)N[C@H]1C[C@@H](O)[C@@H](NCCN)NC(=O)[C@@H]2[C@@H](O)CCN2C(=O)[C@H]([C@H](O)CCN)NC(=O)[C@H]([C@H](O)[C@@H](O)c2ccc(O)cc2)NC(=O)[C@@H]2C[C@@H](O)CN2C(=O)[C@H]([C@@H](C)O)NC1=O [CAS, caspofungin]",Median mutation frequency,C. parapsilosis CP02 [1],<1.04E−08
same,Plate concentration,"C. parapsilosis CP02 [1]; SDA, minimum concentration to cleanly inhibit growth",1 µg/mL
same,Freq. (replicate mutation frequency),C. parapsilosis CP02 [1]; replicate plates 1-3,<1.04E−08 (2×) and <9.62E−09
same,MIC fold-shift,[2]; ATCC 2001,8
same,MIC fold-shift,[2]; ATCC 90030,128
same,MIC,"[2]; 48 h, ATCC 90030 P20-1, selecting drug ANID, Fks2 HS1 D666I, 48 h read",2 µg/mL
same,MIC,"[2]; 48 h, ATCC 90030 P20-1, selecting drug CAS, Fks2 HS1 F659I D666Y, 48 h read",32 µg/mL
same,MIC,"[2]; ATCC 2001 P20-2, selecting drug ANID, Fks1 HS1 D632Y",2 µg/mL
same,MIC,"[2]; ATCC 2001 P20-2, selecting drug CAS",2 µg/mL
same,MIC,"[2]; ATCC 2001 P20-2, selecting drug CMP1",1 µg/mL
same,MIC,"[2]; ATCC 90030 P20-2, selecting drug CMP1",1 µg/mL
same,MIC,"[2]; read-out: MIC P20, ATCC 2001, total population after 20 passages with the selecting drug, MIC of selecting drug",2 µg/mL
same,MIC,"[2]; read-out: MIC P20, ATCC 90030, total population after 20 passages with the selecting drug, MIC of selecting drug",32 µg/mL
same,MIC90,"[3]; pH 4, 24 h",1 µg/mL
same,MIC90,"[3]; pH 4, 48 h",2 µg/mL
same,MIC90,"[3]; pH 7, 24 h",1 µg/mL
same,MIC90,"[3]; pH 7, 48 h",2 µg/mL
same,MIC90,"[4]; pH 4, 24 h",1 µg/mL
same,MIC90,"[4]; pH 4, 48 h",4 µg/mL
same,MIC90,"[4]; pH 7, 24 h",1 µg/mL
same,MIC90,"[4]; pH 7, 48 h",2 µg/mL
same,Cumulative % of isolates inhibited at MIC 0.03 μg/mL,Candida glabrata; 100 isolates,(38.0) %
same,Cumulative % of isolates inhibited at MIC 0.06 μg/mL,Candida glabrata; 100 isolates,(89.0) %
same,Cumulative % of isolates inhibited at MIC 0.12 μg/mL,Candida glabrata; 100 isolates,(95.0) %
same,Cumulative % of isolates inhibited at MIC 0.25 μg/mL,Candida glabrata; 100 isolates,(95.0) %
same,Cumulative % of isolates inhibited at MIC 0.5 μg/mL,Candida glabrata; 100 isolates,(95.0) %
same,Cumulative % of isolates inhibited at MIC 1 μg/mL,Candida glabrata; 100 isolates,(95.0) %
same,Cumulative % of isolates inhibited at MIC 2 μg/mL,Candida glabrata; 100 isolates,(97.0) %
same,Cumulative % of isolates inhibited at MIC 4 μg/mL,Candida glabrata; 100 isolates,(97.0) %
same,Cumulative % of isolates inhibited at MIC 8 μg/mL,Candida glabrata; 100 isolates,(100.0) %
same,Number of isolates inhibited at MIC 0.03 μg/mL,Candida glabrata; 100 isolates,38
same,Number of isolates inhibited at MIC 0.06 μg/mL,Candida glabrata; 100 isolates,51
same,Number of isolates inhibited at MIC 0.12 μg/mL,Candida glabrata; 100 isolates,6
same,Number of isolates inhibited at MIC 0.25 μg/mL,Candida glabrata; 100 isolates,0
same,Number of isolates inhibited at MIC 0.5 μg/mL,Candida glabrata; 100 isolates,0
same,Number of isolates inhibited at MIC 1 μg/mL,Candida glabrata; 100 isolates,0
same,Number of isolates inhibited at MIC 2 μg/mL,Candida glabrata; 100 isolates,3
same,Number of isolates inhibited at MIC 4 μg/mL,Candida glabrata; 100 isolates,0
same,Number of isolates inhibited at MIC 8 μg/mL,Candida glabrata; 100 isolates,3
same,MIC50,Candida glabrata; Nakaseomyces glabratus,0.06 µg/mL
same,MIC90,Candida glabrata; Nakaseomyces glabratus,0.12 µg/mL
same,MIC,"Candida glabrata; Nakaseomyces glabratus, read-out: MIC according to CLSI method, isolate from CA, USA, fks1 HS1 S629P",8 µg/mL
same,MIC,"Candida glabrata; Nakaseomyces glabratus, read-out: MIC according to CLSI method, isolate from Canada (first line), fks1 HS1 S629P, fks2 HS1 S663P",> 8 µg/mL
same,MIC,"Candida glabrata; Nakaseomyces glabratus, read-out: MIC according to CLSI method, isolate from Canada (second line), fks1 HS1 S629P, fks2 HS1 S663P",> 8 µg/mL
same,MIC,"Candida glabrata; Nakaseomyces glabratus, read-out: MIC according to CLSI method, isolate from Israel, fks2 HS1 F659S",2 µg/mL
same,MIC,"Candida glabrata; Nakaseomyces glabratus, read-out: MIC according to CLSI method, isolate from NY, USA, fks2 HS1 S663P",2 µg/mL
same,MIC,"Candida glabrata; Nakaseomyces glabratus, read-out: MIC results, two isolates from same patient, Edmonton, Canada, fks1 HS1 S629P and fks2 HS1 S663P",> 8 µg/mL
same,Cumulative % of isolates inhibited at MIC 0.25 μg/mL,Candida parapsilosis,(33.7) %
same,Cumulative % of isolates inhibited at MIC 0.5 μg/mL,Candida parapsilosis,(87.0) %
same,Cumulative % of isolates inhibited at MIC 1 μg/mL,Candida parapsilosis,(98.9) %
same,Cumulative % of isolates inhibited at MIC 2 μg/mL,Candida parapsilosis,(100.0) %
same,Number of isolates inhibited at MIC 0.25 μg/mL,Candida parapsilosis,31
same,Number of isolates inhibited at MIC 0.5 μg/mL,Candida parapsilosis,49
same,Number of isolates inhibited at MIC 1 μg/mL,Candida parapsilosis,11
same,Number of isolates inhibited at MIC 2 μg/mL,Candida parapsilosis,1
same,MIC50,"Candida parapsilosis; Lodderomyces parapsilosis, read-out: MIC50",0.5 µg/mL
same,MIC90,"Candida parapsilosis; Lodderomyces parapsilosis, read-out: MIC90",1 µg/mL
same,Cumulative % of isolates inhibited at MIC 0.015 μg/mL,Candida tropicalis,(23.5) %
same,Cumulative % of isolates inhibited at MIC 0.03 μg/mL,Candida tropicalis,(68.6) %
same,Cumulative % of isolates inhibited at MIC 0.06 μg/mL,Candida tropicalis,(98.0) %
same,Cumulative % of isolates inhibited at MIC 0.12 μg/mL,Candida tropicalis,(100.0) %
same,Number of isolates inhibited at MIC 0.015 μg/mL,Candida tropicalis,12
same,Number of isolates inhibited at MIC 0.03 μg/mL,Candida tropicalis,23
same,Number of isolates inhibited at MIC 0.06 μg/mL,Candida tropicalis,15
same,Number of isolates inhibited at MIC 0.12 μg/mL,Candida tropicalis,1
same,MIC50,"Candida tropicalis; Candida tropicalis, read-out: MIC50",0.03 µg/mL
same,MIC90,"Candida tropicalis; Candida tropicalis, read-out: MIC90",0.06 µg/mL
same,MIC,C. albicans NRRL Y-477; NRRLY477,0.5 µg/mL
same,MIC,"C. albicans NRRL Y-477; NRRLY477, 24 h, read-out: Broth MIC",0.25 µg/mL
same,Broth MIC,"[5]; ATCC 2001 wild-type, 24 h, ~50% inhibition",0.25 µg/mL
same,MIC,"[5]; 24 h, read-out: Broth MIC",0.25 µg/mL
same,MIC,"[5]; ATCC2001|ATCC90030, ATCC 2001 spontaneous mutant, Fks2 HS1 D666N",0.25 µg/mL
same,MIC,"[5]; ATCC2001|ATCC90030, ATCC 2001 spontaneous mutant, Fks2 HS1 D666Y",0.5 µg/mL
same,MIC,"[5]; ATCC2001|ATCC90030, ATCC 2001 spontaneous mutant, Fks2 HS1 R665G",0.5 µg/mL
same,MIC,"[5]; ATCC2001|ATCC90030, ATCC 2001 spontaneous mutant, Fks2 HS1 S663F",1 µg/mL
same,MIC,"[5]; ATCC2001|ATCC90030, ATCC 2001 spontaneous mutant, Fks2 HS1 ΔF659",16 µg/mL
same,MIC,"[5]; ATCC2001|ATCC90030, ATCC 2001 spontaneous mutant, Fks2 HS2 R1378S",0.25 µg/mL
same,MIC,"[5]; ATCC2001|ATCC90030, ATCC 90030 spontaneous mutant, Fks2 HS1 D666H",1 µg/mL
same,MIC,"[5]; ATCC2001|ATCC90030, ATCC 90030 spontaneous mutant, Fks2 HS1 ΔF659",4 µg/mL
same,MIC,C. parapsilosis CP02 [6],0.5 µg/mL
